In patent US7148236B2, “Modulators of acetylcholine receptors” (Merck & Co., Inc., priority 2002, dated 2006):

| Structure (SMILES) | melting point [°C] |
| --- | --- |
| CN1[C@@H]2CC[C@H]1C[C@H](Sc1ccc3[nH]c(=O)[nH]c3c1)C2 | 178.5 to 181.6 |
| CN1[C@@H]2CC[C@H]1C[C@H](Sc1ccc3[nH]c(=O)[nH]c(=O)c3c1)C2 | > 260 |
| CCCn1c(=S)[nH]c2ccc(S[C@@H]3C[C@H]4CC[C@@H](C3)N4C)c(Cl)c21 | 131.4 to 133.9 |
| CC(C)n1c(=S)[nH]c2ccc(S[C@@H]3C[C@H]4CC[C@@H](C3)N4C)c(Cl)c21 | 228.9 to 230.9 |
| CN1[C@@H]2CC[C@H]1C[C@H](Sc1ccc3[nH]c(=O)n(C)c3c1Cl)C2.Cl | > 260 |
| CN1[C@@H]2CC[C@H]1C[C@H](Sc1cc3c(cc1Cl)[nH]c(=O)n3C)C2 | 206.4 to 207.2 |
